Reference: ChEMBL document CHEMBL3885861, “Open TG-GATES”

Organism: Rattus norvegicus
Test: Open TG-GATES - Regimen: Single
Format: toxicity, organism-based, Sprague-Dawley
Parameters: regimen Single, gender Male, age 6 weeks
Settings: in vivo, po, route gavage; for APTT / Bas / Eos / Fbg / Hb / Ht / MCH / MCHC / MCV / Mono / PT / Plat / RBC / Ret / WBC: tissue Blood; for ALT / CRE / DBIL / GLC / IP / K / LDH / Na / PL / RALB / TBIL / TC / TG / TP / gamma-GTP / ALP: tissue Plasma
[1] = 200 mg/kg, 3 h, dose level Middle
[2] = 200 mg/kg, 6 h, dose level Middle
[3] = 200 mg/kg, 9 h, dose level Middle
[4] = 200 mg/kg, 24 h, dose level Middle
[5] = 600 mg/kg, 3 h, dose level High
[6] = 600 mg/kg, 6 h, dose level High
[7] = 600 mg/kg, 9 h, dose level High
[8] = 600 mg/kg, 24 h, dose level High

SMILES: CCN(CC)C(=S)SSC(=S)N(CC)CC
- TERMINAL_BW [1]: 213.2 g
- APTT [1]: 21.8 s
- Bas [1]: 0%
- Eos [1]: 0.8%
- Fbg [1]: 313.2 mg/dL
- Hb [1]: 13.4 g/dL
- Ht [1]: 41.1%
- MCH [1]: 20.2 pg
- MCHC [1]: 32.6%
- MCV [1]: 62.1 fL
- Mono [1]: 4.2%
- PT [1]: 16.2 s
- Plat [1]: 124 x10_4/uL
- RBC [1]: 662.4 x10_4/ul
- Ret [1]: 7.4%
- WBC [1]: 77.1 x10_2/uL
- ALT [1]: 40.6 IU/L
- CRE [1]: 0.1 mg/dL
- DBIL [1]: 0 mg/dL
- GLC [1]: 181.2 mg/dL
- IP [1]: 9.4 mg/dL
- K [1]: 4.1 meq/L
- LDH [1]: 215.4 IU/L
- Na [1]: 142 meq/L
- PL [1]: 147.8 mg/dL
- RALB [1]: 3.2 g/dL
- TBIL [1]: 0.004 mg/dL
- TC [1]: 80.8 mg/dL
- TG [1]: 84.2 mg/dL
- TP [1]: 5.7 g/dL
- gamma-GTP [1]: 1 IU/L
- TERMINAL_BW [2]: 210.4 g
- APTT [2]: 22.1 s
- Bas [2]: 0%
- Eos [2]: 0.4%
- Fbg [2]: 299.4 mg/dL
- Hb [2]: 13 g/dL
- Ht [2]: 40.2%
- MCH [2]: 20.2 pg
- MCHC [2]: 32.3%
- MCV [2]: 62.4 fL
- Mono [2]: 2.2%
- PT [2]: 15.9 s
- Plat [2]: 123.4 x10_4/uL
- RBC [2]: 644.6 x10_4/ul
- Ret [2]: 7.2%
- WBC [2]: 67.3 x10_2/uL
- ALP [2]: 1309.6 IU/L
- ALT [2]: 37.2 IU/L
- CRE [2]: 0.1 mg/dL
- DBIL [2]: 0.004 mg/dL
- GLC [2]: 194 mg/dL
- IP [2]: 9.6 mg/dL
- K [2]: 4.1 meq/L
- LDH [2]: 192 IU/L
- Na [2]: 141 meq/L
- PL [2]: 125.4 mg/dL
- RALB [2]: 3.1 g/dL
- TBIL [2]: 0.012 mg/dL
- TC [2]: 73.2 mg/dL
- TG [2]: 33 mg/dL
- TP [2]: 5.4 g/dL
- gamma-GTP [2]: 0.8 IU/L
- TERMINAL_BW [3]: 213.7 g
- APTT [3]: 22.8 s
- Bas [3]: 0%
- Eos [3]: 0.6%
- Fbg [3]: 297 mg/dL
- Hb [3]: 13.1 g/dL
- Ht [3]: 40.6%
- MCH [3]: 20 pg
- MCHC [3]: 32.3%
- MCV [3]: 61.8 fL
- Mono [3]: 2%
- PT [3]: 15.9 s
- Plat [3]: 119.2 x10_4/uL
- RBC [3]: 659 x10_4/ul
- Ret [3]: 7.8%
- WBC [3]: 81.1 x10_2/uL
- ALP [3]: 1366 IU/L
- ALT [3]: 34.6 IU/L
- CRE [3]: 0.1 mg/dL
- DBIL [3]: 0.012 mg/dL
- GLC [3]: 195 mg/dL
- IP [3]: 9.1 mg/dL
- K [3]: 4.1 meq/L
- LDH [3]: 141.2 IU/L
- Na [3]: 140.6 meq/L
- PL [3]: 137.8 mg/dL
- RALB [3]: 3.2 g/dL
- TBIL [3]: 0.02 mg/dL
- TC [3]: 80.4 mg/dL
- TG [3]: 46.8 mg/dL
- TP [3]: 5.5 g/dL
- gamma-GTP [3]: 0.8 IU/L
- TERMINAL_BW [4]: 216 g
- APTT [4]: 22 s
- Bas [4]: 0%
- Eos [4]: 0.4%
- Fbg [4]: 301.2 mg/dL
- Hb [4]: 13 g/dL
- Ht [4]: 39.9%
- MCH [4]: 20 pg
- MCHC [4]: 32.5%
- MCV [4]: 61.6 fL
- Mono [4]: 2.4%
- PT [4]: 16.6 s
- Plat [4]: 111.9 x10_4/uL
- RBC [4]: 649.2 x10_4/ul
- Ret [4]: 6.6%
- WBC [4]: 91.8 x10_2/uL
- ALP [4]: 1198.6 IU/L
- ALT [4]: 38.4 IU/L
- CRE [4]: 0.1 mg/dL
- DBIL [4]: 0.004 mg/dL
- GLC [4]: 170 mg/dL
- IP [4]: 7 mg/dL
- K [4]: 4.1 meq/L
- LDH [4]: 160.6 IU/L
- Na [4]: 142.2 meq/L
- PL [4]: 131.6 mg/dL
- RALB [4]: 2.9 g/dL
- TBIL [4]: 0.012 mg/dL
- TC [4]: 80.8 mg/dL
- TG [4]: 83 mg/dL
- TP [4]: 5.3 g/dL
- gamma-GTP [4]: 1.2 IU/L
- TERMINAL_BW [5]: 218 g
- APTT [5]: 21.3 s
- Bas [5]: 0%
- Eos [5]: 0.8%
- Fbg [5]: 293.2 mg/dL
- Hb [5]: 13.4 g/dL
- Ht [5]: 41.4%
- MCH [5]: 20 pg
- MCHC [5]: 32.4%
- MCV [5]: 61.6 fL
- Mono [5]: 4.2%
- PT [5]: 16.2 s
- Plat [5]: 126.4 x10_4/uL
- RBC [5]: 674 x10_4/ul
- Ret [5]: 7.9%
- WBC [5]: 82 x10_2/uL
- ALP [5]: 1358.2 IU/L
- ALT [5]: 45.8 IU/L
- CRE [5]: 0.1 mg/dL
- DBIL [5]: 0.01 mg/dL
- GLC [5]: 194.8 mg/dL
- IP [5]: 10.1 mg/dL
- K [5]: 4 meq/L
- LDH [5]: 250.2 IU/L
- Na [5]: 141.4 meq/L
- PL [5]: 132 mg/dL
- RALB [5]: 3.1 g/dL
- TBIL [5]: 0.008 mg/dL
- TC [5]: 76.6 mg/dL
- TG [5]: 57.8 mg/dL
- TP [5]: 5.6 g/dL
- gamma-GTP [5]: 1 IU/L
- TERMINAL_BW [6]: 211.8 g
- APTT [6]: 23.9 s
- Bas [6]: 0%
- Eos [6]: 0.8%
- Fbg [6]: 304 mg/dL
- Hb [6]: 13.7 g/dL
- Ht [6]: 42.2%
- MCH [6]: 20.5 pg
- MCHC [6]: 32.4%
- MCV [6]: 63.2 fL
- Mono [6]: 2.4%
- PT [6]: 16.3 s
- Plat [6]: 117.9 x10_4/uL
- RBC [6]: 668.2 x10_4/ul
- Ret [6]: 7.1%
- WBC [6]: 73.5 x10_2/uL
- ALP [6]: 1429.6 IU/L
- ALT [6]: 37.6 IU/L
- CRE [6]: 0.1 mg/dL
- DBIL [6]: 0.01 mg/dL
- GLC [6]: 207.2 mg/dL
- IP [6]: 9.7 mg/dL
- K [6]: 4.3 meq/L
- LDH [6]: 182.6 IU/L
- Na [6]: 140.6 meq/L
- PL [6]: 134.2 mg/dL
- RALB [6]: 3.1 g/dL
- TBIL [6]: 0.014 mg/dL
- TC [6]: 80.8 mg/dL
- TG [6]: 23.4 mg/dL
- TP [6]: 5.5 g/dL
- gamma-GTP [6]: 1.2 IU/L
- TERMINAL_BW [7]: 206.5 g
- APTT [7]: 23.7 s
- Bas [7]: 0.2%
- Eos [7]: 0.6%
- Fbg [7]: 299 mg/dL
- Hb [7]: 13.3 g/dL
- Ht [7]: 40.6%
- MCH [7]: 20.7 pg
- MCHC [7]: 32.8%
- MCV [7]: 63.2 fL
- Mono [7]: 2.2%
- PT [7]: 16.2 s
- Plat [7]: 119.4 x10_4/uL
- RBC [7]: 642.4 x10_4/ul
- Ret [7]: 7.3%
- WBC [7]: 77.1 x10_2/uL
- ALP [7]: 1243.4 IU/L
- ALT [7]: 36.6 IU/L
- CRE [7]: 0.1 mg/dL
- DBIL [7]: 0.014 mg/dL
- GLC [7]: 200.4 mg/dL
- IP [7]: 8.9 mg/dL
- K [7]: 4.2 meq/L
- LDH [7]: 184 IU/L
- Na [7]: 140.6 meq/L
- PL [7]: 136 mg/dL
- RALB [7]: 3.2 g/dL
- TBIL [7]: 0.02 mg/dL
- TC [7]: 79.2 mg/dL
- TG [7]: 57.4 mg/dL
- TP [7]: 5.6 g/dL
- gamma-GTP [7]: 1 IU/L
- TERMINAL_BW [8]: 222.1 g
- APTT [8]: 21.6 s
- Bas [8]: 0%
- Eos [8]: 0.8%
- Fbg [8]: 290.2 mg/dL
- Hb [8]: 12.7 g/dL
- Ht [8]: 39%
- MCH [8]: 19.5 pg
- MCHC [8]: 32.4%
- MCV [8]: 60.1 fL
- Mono [8]: 2.2%
- PT [8]: 16 s
- Plat [8]: 115.3 x10_4/uL
- RBC [8]: 649.8 x10_4/ul
- Ret [8]: 6.8%
- WBC [8]: 94.6 x10_2/uL
- ALP [8]: 1144.8 IU/L
- ALT [8]: 40.2 IU/L
- CRE [8]: 0.1 mg/dL
- DBIL [8]: 0.014 mg/dL
- GLC [8]: 177.8 mg/dL
- IP [8]: 7.7 mg/dL
- K [8]: 3.9 meq/L
- LDH [8]: 183.4 IU/L
- Na [8]: 142.4 meq/L
- PL [8]: 149.4 mg/dL
- RALB [8]: 3.1 g/dL
- TBIL [8]: 0.024 mg/dL
- TC [8]: 91 mg/dL
- TG [8]: 92.6 mg/dL
- TP [8]: 5.5 g/dL
- gamma-GTP [8]: 1 IU/L
